Results reported in ChEMBL document CHEMBL3817754, “Synthesis and evaluation of donepezilferulic acid hybrids as multi-target-directed ligands against Alzheimer's disease” (Medchemcomm, 2016).
Calls of active or inactive are those of the source. The calls are words filed in the database; no cut-off is given here.

Columns and labels:
[1] = Selectivity index, ratio of IC50 for equine serum butyrylcholinesterase to IC50 for electric eel acetylcholinesterase
[2] = DPPH radical solution, 30 min
Description: Antioxidant activity assessed as DPPH radical scavenging activity incubated in dark for 30 mins by spectrophotometry

[3] = biological target: Acetylcholinesterase (Electrophorus electricus, UniProt O42275); assay: Inhibition of electric eel acetylcholinesterase preincubated for 5 mins followed by addition of acetylthiocholine iodide as substrate measured after 60 to 120 mins by Ellmans method
Acetylcholinesterase (Electrophorus electricus, UniProt O42275), sequence (O42275 whole entry): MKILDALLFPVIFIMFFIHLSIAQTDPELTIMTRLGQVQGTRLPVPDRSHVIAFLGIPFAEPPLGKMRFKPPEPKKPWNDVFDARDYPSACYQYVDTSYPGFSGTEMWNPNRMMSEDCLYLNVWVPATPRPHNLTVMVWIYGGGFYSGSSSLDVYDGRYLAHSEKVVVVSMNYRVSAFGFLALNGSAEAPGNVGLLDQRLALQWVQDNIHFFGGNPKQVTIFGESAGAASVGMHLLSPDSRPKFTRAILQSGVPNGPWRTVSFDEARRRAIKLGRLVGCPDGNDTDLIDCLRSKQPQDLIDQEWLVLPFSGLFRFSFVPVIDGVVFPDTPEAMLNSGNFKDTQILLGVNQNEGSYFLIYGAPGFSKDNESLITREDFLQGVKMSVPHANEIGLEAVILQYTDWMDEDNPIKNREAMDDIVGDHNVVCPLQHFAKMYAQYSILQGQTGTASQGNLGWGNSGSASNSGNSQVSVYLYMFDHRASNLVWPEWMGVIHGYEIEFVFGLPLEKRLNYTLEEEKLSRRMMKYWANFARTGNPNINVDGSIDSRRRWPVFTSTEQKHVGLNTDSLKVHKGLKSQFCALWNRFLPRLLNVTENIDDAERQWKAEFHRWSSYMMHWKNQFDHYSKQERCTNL

[4] = Cytotoxicity against […] PC12 cells assessed as cell viability at 20 uM after 24 hrs by MTT assay; assay type: cell-based; details: rat, pc-12, 24 h
[5] = biological target: Cholinesterase (Equus caballus, UniProt P81908); assay: Inhibition of equine serum butyrylcholinesterase preincubated for 5 mins followed by addition of S-butyrylthiocholine iodide as substrate measured after 60 to 120 mins by Ellmans method
Cholinesterase (Equus caballus, UniProt P81908), sequence (P81908 whole entry): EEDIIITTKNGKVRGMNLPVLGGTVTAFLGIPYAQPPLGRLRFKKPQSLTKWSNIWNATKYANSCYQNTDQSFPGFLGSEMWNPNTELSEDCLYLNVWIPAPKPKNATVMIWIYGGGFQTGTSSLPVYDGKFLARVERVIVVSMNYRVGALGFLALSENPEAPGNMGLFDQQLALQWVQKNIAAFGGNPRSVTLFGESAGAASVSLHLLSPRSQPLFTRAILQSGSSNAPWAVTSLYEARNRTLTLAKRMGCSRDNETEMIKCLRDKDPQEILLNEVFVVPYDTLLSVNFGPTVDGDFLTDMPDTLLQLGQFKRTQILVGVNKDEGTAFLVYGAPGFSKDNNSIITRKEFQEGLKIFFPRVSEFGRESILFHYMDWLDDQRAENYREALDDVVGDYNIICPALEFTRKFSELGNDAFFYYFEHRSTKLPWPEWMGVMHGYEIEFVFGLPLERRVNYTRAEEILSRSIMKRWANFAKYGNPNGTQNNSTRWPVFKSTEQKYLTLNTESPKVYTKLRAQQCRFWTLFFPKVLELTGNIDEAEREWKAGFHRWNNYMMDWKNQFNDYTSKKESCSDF

[6] = Antioxidant activity assessed as DPPH radical scavenging activity at 1000 uM incubated in dark for 30 mins by spectrophotometry; assay type: physicochemical; details: 0.5 h
[7] = biological target: Cholinesterase (Homo sapiens, UniProt P06276); assay: Inhibition of human serum butyrylcholinesterase preincubated for 5 mins followed by addition of S-butyrylthiocholine iodide as substrate measured after 60 to 120 mins by Ellmans method
Cholinesterase (Homo sapiens, UniProt P06276), sequence (P06276 whole entry): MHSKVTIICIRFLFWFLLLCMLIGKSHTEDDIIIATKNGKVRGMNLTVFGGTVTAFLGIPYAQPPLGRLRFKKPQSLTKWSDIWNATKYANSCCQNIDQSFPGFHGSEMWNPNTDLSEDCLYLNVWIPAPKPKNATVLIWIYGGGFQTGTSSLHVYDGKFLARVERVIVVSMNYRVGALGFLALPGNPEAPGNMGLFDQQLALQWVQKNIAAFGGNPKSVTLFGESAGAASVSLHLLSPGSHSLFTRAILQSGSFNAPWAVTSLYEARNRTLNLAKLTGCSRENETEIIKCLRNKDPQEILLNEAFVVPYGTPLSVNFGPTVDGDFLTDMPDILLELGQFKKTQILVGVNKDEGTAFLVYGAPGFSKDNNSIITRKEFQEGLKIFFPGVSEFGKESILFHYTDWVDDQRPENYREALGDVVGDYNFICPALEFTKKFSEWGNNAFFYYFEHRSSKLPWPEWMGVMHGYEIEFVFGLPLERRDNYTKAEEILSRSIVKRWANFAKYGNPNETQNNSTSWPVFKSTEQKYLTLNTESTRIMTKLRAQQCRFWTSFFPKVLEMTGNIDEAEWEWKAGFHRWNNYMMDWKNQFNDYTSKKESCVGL

[8] = species on record: Homo sapiens; assay: Selectivity index, ratio of IC50 for human serum butyrylcholinesterase to IC50 for human erythrocytes acetylcholinesterase
[9] = biological target: Acetylcholinesterase (Homo sapiens, UniProt P22303); assay: Inhibition of human erythrocytes acetylcholinesterase preincubated for 5 mins followed by addition of acetylthiocholine iodide as substrate measured after 60 to 120 mins by Ellmans method
Acetylcholinesterase (Homo sapiens, UniProt P22303), sequence (P22303 whole entry): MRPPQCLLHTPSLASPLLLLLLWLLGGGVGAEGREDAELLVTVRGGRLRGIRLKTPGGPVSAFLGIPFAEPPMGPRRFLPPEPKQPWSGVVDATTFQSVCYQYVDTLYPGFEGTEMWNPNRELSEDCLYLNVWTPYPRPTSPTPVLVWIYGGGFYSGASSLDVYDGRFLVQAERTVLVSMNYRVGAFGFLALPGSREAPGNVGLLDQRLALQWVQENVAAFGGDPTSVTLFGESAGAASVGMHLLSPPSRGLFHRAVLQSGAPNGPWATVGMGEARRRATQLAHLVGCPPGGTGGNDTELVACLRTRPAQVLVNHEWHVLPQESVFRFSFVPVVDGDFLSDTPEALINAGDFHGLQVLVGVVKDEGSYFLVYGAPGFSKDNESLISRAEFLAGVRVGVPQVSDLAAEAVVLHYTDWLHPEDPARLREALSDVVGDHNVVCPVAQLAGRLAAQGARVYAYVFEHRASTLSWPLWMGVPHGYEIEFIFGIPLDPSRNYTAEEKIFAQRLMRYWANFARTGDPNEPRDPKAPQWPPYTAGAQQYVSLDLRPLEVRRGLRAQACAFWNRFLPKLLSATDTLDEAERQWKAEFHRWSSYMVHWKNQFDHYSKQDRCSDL

[10] = tested on: PC-12; assay: Neuroprotective activity against H2O2 induced damage in […] PC12 cells assessed as cell viability at 1 to 10 uM preincubated for 4 hrs followed by H2O2 challenge for 20 hrs by MTT assay; assay type: functional, cell-based; details: Rattus norvegicus
[11] = biological target: Cholinesterase (Equus caballus) (UniProt P81908); assay: Inhibition of equine serum butyrylcholinesterase at 1000 uM preincubated for 5 mins followed by addition of S-butyrylthiocholine iodide as substrate measured after 60 to 120 mins by Ellmans method
Cholinesterase (Equus caballus), sequence (P81908 whole entry): as the sequence (P81908 whole entry) above

[12] = biological target: Acetylcholinesterase (Electrophorus electricus) (UniProt O42275); assay: Inhibition of electric eel acetylcholinesterase at 1000 uM preincubated for 5 mins followed by addition of acetylthiocholine iodide as substrate measured after 60 to 120 mins by Ellmans method
Acetylcholinesterase (Electrophorus electricus), sequence (O42275 24-633 limits assumed): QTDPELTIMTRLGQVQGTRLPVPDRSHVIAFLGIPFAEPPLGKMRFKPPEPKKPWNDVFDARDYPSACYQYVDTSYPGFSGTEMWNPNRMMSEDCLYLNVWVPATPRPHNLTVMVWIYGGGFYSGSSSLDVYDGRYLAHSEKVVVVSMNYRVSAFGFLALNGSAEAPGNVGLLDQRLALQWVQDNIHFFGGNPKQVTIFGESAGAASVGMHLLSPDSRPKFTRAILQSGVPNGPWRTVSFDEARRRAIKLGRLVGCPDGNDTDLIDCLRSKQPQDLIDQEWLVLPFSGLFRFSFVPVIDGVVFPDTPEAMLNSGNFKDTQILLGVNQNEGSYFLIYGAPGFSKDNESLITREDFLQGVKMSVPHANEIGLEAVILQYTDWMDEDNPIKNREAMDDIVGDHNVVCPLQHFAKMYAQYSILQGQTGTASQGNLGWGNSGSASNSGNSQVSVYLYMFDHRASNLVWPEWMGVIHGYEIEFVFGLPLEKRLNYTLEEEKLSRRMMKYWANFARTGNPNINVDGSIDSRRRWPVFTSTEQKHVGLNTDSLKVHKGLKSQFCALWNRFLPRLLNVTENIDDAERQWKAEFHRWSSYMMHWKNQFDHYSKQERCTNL

[13] = biological target: Cholinesterase (Equus caballus) (UniProt P81908); assay: Mixed-type inhibition of equine serum butyrylcholinesterase at 0.5 to 2 uM preincubated for 5 mins followed by addition of S-butyrylthiocholine iodide as substrate measured after 60 to 120 mins by Lineweaver-Burk plot analysis
[14] = Metal chelating activity assessed as ferric-compound complex formation at 75 uM after 30 mins by UV-vis spectrometry; assay type: physicochemical; details: 0.5 h
[15] = Metal chelating activity assessed as zinc-compound complex formation at 75 uM after 30 mins by UV-vis spectrometry; assay type: physicochemical; details: 0.5 h
[16] = Metal chelating activity assessed as ferrous-compound complex formation at 75 uM after 30 mins by UV-vis spectrometry; assay type: physicochemical; details: 0.5 h
[17] = in vitro; details: PAMPA
[18] = Metal chelating activity assessed as copper-compound complex formation at 75 uM after 30 mins by UV-vis spectrometry; assay type: physicochemical; details: 0.5 h
[19] = biological target: Acetylcholinesterase (Electrophorus electricus) (UniProt O42275); assay: Mixed-type inhibition of electric eel acetylcholinesterase at 0.2 to 0.8 uM preincubated for 5 mins followed by addition of acetylthiocholine iodide as substrate measured after 60 to 120 mins by Lineweaver-Burk plot analysis

Structure (SMILES)	Ratio IC50 [1]	IC50 [2]	IC50 [3]	Activity [4]	IC50 [5]	inhibition (INH) [6]	IC50 [7]	Ratio IC50 [8]	IC50 [9]	also measured
COc1cc(/C=C/C(=O)CC(=O)NCCC2CCN(Cc3ccccc3)CC2)ccc1O	0.415	76800 nM	2600 nM	Non-toxic	1080 nM					
O=C(/C=C/c1ccc([N+](=O)[O-])cc1)NC1CCN(Cc2ccccc2)CC1	1.26		7120 nM	Non-toxic	9010 nM	Not Active				
COc1cc(/C=C/C(=O)NC2CCN(Cc3ccccc3)CC2)ccc1O	1.68	32500 nM	29300 nM	Non-toxic	49200 nM					
COc1ccc(/C=C/C(=O)NCCC2CCN(Cc3ccccc3)CC2)cc1O	2.33	764000 nM	1060 nM	Non-toxic	2470 nM		3240 nM	1.95	1660 nM	
COc1ccc(/C=C/C(=O)NCCC2CCN(Cc3ccccc3)CC2)cc1OC	5.43		285 nM	Non-toxic	1550 nM	Not Active	2540 nM	4.83	526 nM	
COc1cc(/C=C/C(=O)NC2CCN(Cc3ccccc3)CC2)cc(OC)c1OC	0.038		31600 nM	Non-toxic	1250 nM	Not Active				
O=C(/C=C/c1ccc(O)c(O)c1)NC1CCN(Cc2ccccc2)CC1	0.241	10600 nM	62100 nM	Non-toxic	15000 nM					Activity [10]: Active
NC1CCN(Cc2ccccc2)CC1										inhibition [11]: inactive; inhibition [12]: inactive
COc1cccc(/C=C/C(=O)NCCC2CCN(Cc3ccccc3)CC2)c1	0.642		383 nM	Non-toxic	244 nM	Not Active	1440 nM	2.09	690 nM	
COc1cc(/C=C/C(=O)NCCC2CCN(Cc3ccccc3)CC2)cc(OC)c1O	2.2	24900 nM	398 nM	Non-toxic	976 nM		1220 nM	3.8	321 nM	inhibition [13]: Active; Activity [14]: Not Active; Activity [15]: Not Active; Activity [16]: Not Active; Papp at 16 h, 5 mg/mL [17]: 7.68 ×10⁻⁶ cm/s; Activity [18]: Active; Activity [10]: Active; inhibition [19]: Active
COc1cc(/C=C/C(=O)CC(=O)/C=C/c2ccc(O)c(OC)c2)ccc1O [CURCUMIN]	4.43	23300 nM								inhibition [11]: inactive; inhibition [12]: inactive
COc1cc(/C=C/C(=O)NC2CCN(Cc3ccccc3)CC2)ccc1OC(C)=O	0.786		22000 nM	Non-toxic	17300 nM	Not Active				
O=C(/C=C/c1ccc(O)cc1)NCCC1CCN(Cc2ccccc2)CC1	1.42	936000 nM	874 nM	Non-toxic	1240 nM		784 nM	0.36	2200 nM	
COc1cc(CCC(=O)NCCC2CCN(Cc3ccccc3)CC2)ccc1O	0.588	48300 nM	7480 nM	Non-toxic	4400 nM		286 nM	0.054	5320 nM	Activity [10]: Active
COc1cc(/C=C/C(=O)NCCC2CCN(Cc3ccccc3)CC2)ccc1OC(C)=O	2.31		290 nM	Non-toxic	670 nM	Not Active	245 nM	0.72	339 nM	
Cc1c(C)c2c(c(C)c1O)CCC(C)(C(=O)O)O2 (stereo not drawn)										Activity [10]: Active
